Laboratory results reported in patent US9682141B2, “Combination of kinase inhibitors and uses thereof” (INTELLIKINE LLC, priority 2011, dated 2017).
pIC50: −log10 of the molar value.

Tests used:
[1] = biological target: PI3K γ (Homo sapiens (Human), UniProt P48736); experiment: PI 3-Kinase (human) HTRF assay, p110γ; assay type: biochemical; settings: read-out: PI3K γ IC50
[2] = biological target: PI3K α (Homo sapiens (Human), UniProt P42336); experiment: PI 3-Kinase (human) HTRF assay, p110α/p85α; assay type: biochemical
[3] = biological target: PI3K δ (Homo sapiens (Human), UniProt O00329); experiment: PI 3-Kinase (human) HTRF assay, p110δ/p85α; assay type: biochemical
Procedure: (§1) An exemplary system is PI 3-Kinase (human) HTRF™ Assay from Upstate. […] Briefly, the assay is a time resolved FRET assay that indirectly measures PIP3 product formed by the activity of a PI3-K. The kinase reaction is performed in a microtitre plate (e.g., a 384 well microtitre plate). The total reaction volume is approximately 20 ul per well. In the first step, each well receives 2 ul of test compound in 20% dimethylsulphoxide resulting in a 2% DMSO final concentration. Next, approximately 14.5 ul of a kinase/PIP2 mixture (diluted in 1× reaction buffer) is added per well for a final concentration of 0.25-0.3 ug/ml kinase and 10 μM PIP2. The plate is sealed and incubated for 15 minutes at room temperature. To start the reaction, 3.5 ul of ATP (diluted in 1× reaction buffer) is added per well for a final concentration of 10 μM ATP. The plate is sealed and incubated for 1 hour at room temperature. The reaction is stopped by adding 5 ul of Stop Solution per well and then 5 ul of Detection Mix is added per well. The plate is sealed, incubated for 1 hour at room temperature, and then read on an appropriate plate reader. Data is analyzed and IC50s are generated using GraphPad Prism 5. For PI3K α, β, δ, and γ, the nM concentration of inhibitor to reach IC50 is provided.

[4] = test system: T47D cells; experiment: T47D proliferation; assay type: cell-based; settings: Homo sapiens
[5] = biological target: PI3K β (Homo sapiens (Human), UniProt P42338); experiment: PI 3-Kinase (human) HTRF assay, p110β/p85α; assay type: biochemical
Procedure: as §1

[6] = biological target: mTORC (Homo sapiens (Human), UniProt P42345); experiment: mTOR inhibition assay (radiometric or LanthaScreen TR-FRET); assay type: biochemical
[7] = test system: MDA-MB-361 tumors; experiment: Xenogenic mouse model of breast cancer (MDA-MB-361); assay type: in vivo; settings: 70 mg/kg Pan-PI3K inhibitor, 60 mg/kg Compound A
[8] = test system: marginal zone B cells; experiment: Marginal zone B cells in mouse spleen (FACS); assay type: in vivo; settings: 70 mg/kg Pan-PI3K inhibitor, 60 mg/kg Compound A; spleens harvested 2 hrs after last dose
Description: Spleens were harvested 2 hrs after the last dose, processed and stained with appropriate antibodies (marginal zone B cell: B220+;CD23−;CD21hi) and analyzed for staining on GUAVA EasyCyte FACS machine using Guava Cytosoft 5.2 software.

[9] = test system: anti-TNP antibody production; experiment: TNP-Ficoll T-cell independent B-cell activation assay; assay type: in vivo, mouse; settings: mice immunized with TNP-Ficoll; 70 mg/kg GDC0941; 30, 60, 120 mg/kg Compound A; 7 days
Procedure: To test the effects of the compounds of the present invention in suppressing T cell independent antibody production, the TNP-Ficoll B-cell activation assay is used as described herein. Compounds of the present invention are dissolved in an appropriate vehicle (e.g. 5% 1-methyl-2-pyrrolidinone, 85% polyethylene glycol 400, 10% Solutor). Compounds are administered orally approximately 1 hr before TNP-Ficoll treatment to 4-10 week old mice. To study the effects of the compounds on B-cell activation, one set of mice are grouped according to the following table:
Four animals in group 1, and eight animals in groups 2 to 7 are euthanized in CO2 2 hours after the last compound administration on day 7. […]
Serum samples are analyzed for anti-TNP antibody titers by ELISA as described herein. […] HRP substrate (200 μl ABTS solution+30% H2O2+10 ml citrate buffer) is added to each well at 100 μl/well, incubated 2-20 minutes in the dark and the amount of anti-TNP IgG3 is determined spectrophotometrically at 405 nm. Similarly, anti-TNP IgM and total anti-TNP Ab are determined using anti-mouse IgM-HRP and anti-mouse Ig-HRP respectively.
Antibody production was measured using ELISA and plotted as as a percentage of control group that were treated with vehicle.

[10] = PBS pH 7.4, 37° C., 24 hours, 5 μM reference compound; cited from earlier work
[11] = control or reference compound, 5 μM; cited from earlier work
[12] = test system: PI3K/Akt/mTor signaling in blood cells; experiment: Kinase signaling in blood (phosflow); assay type: cell-based; settings: anti-CD3 stimulated splenocytes or PBMC
Procedure: PI3K/Akt/mTor signaling is measured in blood cells using the phosflow method (Methods Enzymol. 2007; 434:131-54). The advantage of this method is that it is by nature a single cell assay so that cellular heterogeneity can be detected rather than population averages. This allows concurrent dinstinction of signaling states in different populations defined by other markers. Phosflow is also highly quantitative. To test the effects of one or more compounds disclosed herein, unfractionated splenocytes, or peripheral blood mononuclear cells are stimulated with anti-CD3 to initiate T-cell receptor signaling. The cells are then fixed and stained for surface markers and intracellular phosphoproteins.
Similarly, aliquots of whole blood are incubated for 15 minutes with vehicle (e.g., 0.1% DMSO) or kinase inhibitors at various concentrations, before addition of stimuli to crosslink the T cell receptor (TCR) (anti-CD3 with secondary antibody) or the B cell receptor (BCR) using anti-kappa light chain antibody (Fab′2 fragments). After approximately 5 and 15 minutes, samples are fixed (e.g., with cold 4% paraformaldehyde) and used for phosflow. […] The level of phosphrylation of kinase substrates such as Akt and S6 are then measured by incubating the fixed cells with labeled antibodies specific to the phosphorylated isoforms of these proteins. The population of cells is then analyzed by flow cytometry.

Chain of PI3K γ (P48736 whole entry): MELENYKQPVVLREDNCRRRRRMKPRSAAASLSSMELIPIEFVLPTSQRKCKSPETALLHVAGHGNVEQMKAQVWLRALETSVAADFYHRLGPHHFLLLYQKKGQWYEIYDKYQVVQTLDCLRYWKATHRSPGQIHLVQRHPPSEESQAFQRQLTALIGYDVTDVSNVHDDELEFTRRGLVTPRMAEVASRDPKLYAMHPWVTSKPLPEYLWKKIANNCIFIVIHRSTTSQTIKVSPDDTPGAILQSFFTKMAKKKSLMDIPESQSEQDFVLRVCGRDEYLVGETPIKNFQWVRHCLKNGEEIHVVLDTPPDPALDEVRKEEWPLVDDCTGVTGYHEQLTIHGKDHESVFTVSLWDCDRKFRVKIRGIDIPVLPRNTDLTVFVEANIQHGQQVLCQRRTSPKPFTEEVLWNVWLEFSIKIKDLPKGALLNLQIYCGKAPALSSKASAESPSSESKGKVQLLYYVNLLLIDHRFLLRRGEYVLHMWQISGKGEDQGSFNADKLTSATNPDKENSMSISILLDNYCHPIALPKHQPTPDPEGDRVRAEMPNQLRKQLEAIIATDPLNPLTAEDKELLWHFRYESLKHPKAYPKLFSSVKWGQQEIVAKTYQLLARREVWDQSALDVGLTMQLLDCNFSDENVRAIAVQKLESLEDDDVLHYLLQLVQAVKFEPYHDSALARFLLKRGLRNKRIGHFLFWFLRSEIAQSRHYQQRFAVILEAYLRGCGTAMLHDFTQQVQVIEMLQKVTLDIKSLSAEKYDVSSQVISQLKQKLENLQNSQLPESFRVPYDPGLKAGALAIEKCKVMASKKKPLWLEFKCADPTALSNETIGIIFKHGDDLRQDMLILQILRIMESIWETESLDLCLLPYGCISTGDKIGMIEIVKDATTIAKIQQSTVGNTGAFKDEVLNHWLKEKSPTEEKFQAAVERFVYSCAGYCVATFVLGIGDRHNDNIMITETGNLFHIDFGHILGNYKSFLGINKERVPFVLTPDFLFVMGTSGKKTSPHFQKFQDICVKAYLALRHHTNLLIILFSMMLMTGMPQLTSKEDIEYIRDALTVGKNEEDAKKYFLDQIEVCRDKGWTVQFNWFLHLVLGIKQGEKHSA
Chain of mTORC (P42345 1360-2549): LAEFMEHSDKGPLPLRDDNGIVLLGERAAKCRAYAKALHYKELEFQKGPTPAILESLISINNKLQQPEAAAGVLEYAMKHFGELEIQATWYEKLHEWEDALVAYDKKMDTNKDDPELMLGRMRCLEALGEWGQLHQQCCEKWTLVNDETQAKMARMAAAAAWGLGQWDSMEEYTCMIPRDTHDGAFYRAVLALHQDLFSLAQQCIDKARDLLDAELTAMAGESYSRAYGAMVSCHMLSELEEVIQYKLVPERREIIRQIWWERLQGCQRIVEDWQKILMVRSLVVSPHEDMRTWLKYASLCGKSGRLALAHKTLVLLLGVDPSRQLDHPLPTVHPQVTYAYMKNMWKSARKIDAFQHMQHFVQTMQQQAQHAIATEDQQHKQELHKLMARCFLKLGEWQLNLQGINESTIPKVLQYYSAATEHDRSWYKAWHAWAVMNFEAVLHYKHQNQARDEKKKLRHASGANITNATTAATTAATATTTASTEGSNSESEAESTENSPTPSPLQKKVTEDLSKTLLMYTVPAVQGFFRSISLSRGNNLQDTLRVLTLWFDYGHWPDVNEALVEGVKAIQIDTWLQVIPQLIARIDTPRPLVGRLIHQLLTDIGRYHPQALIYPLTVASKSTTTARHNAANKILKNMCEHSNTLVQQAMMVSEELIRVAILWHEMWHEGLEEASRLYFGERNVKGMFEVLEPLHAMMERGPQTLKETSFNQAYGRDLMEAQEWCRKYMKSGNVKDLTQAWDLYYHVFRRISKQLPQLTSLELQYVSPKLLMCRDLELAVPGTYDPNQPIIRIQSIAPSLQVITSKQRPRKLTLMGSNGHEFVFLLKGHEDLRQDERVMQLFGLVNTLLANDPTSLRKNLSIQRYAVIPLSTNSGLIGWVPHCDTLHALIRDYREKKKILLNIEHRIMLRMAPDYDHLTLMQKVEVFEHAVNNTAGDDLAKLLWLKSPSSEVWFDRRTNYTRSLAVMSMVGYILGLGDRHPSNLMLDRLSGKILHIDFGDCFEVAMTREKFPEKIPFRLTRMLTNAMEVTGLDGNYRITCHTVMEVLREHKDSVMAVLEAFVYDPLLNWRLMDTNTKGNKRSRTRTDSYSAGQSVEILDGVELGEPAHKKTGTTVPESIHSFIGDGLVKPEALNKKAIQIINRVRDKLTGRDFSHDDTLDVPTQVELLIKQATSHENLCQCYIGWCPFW
Chain of PI3K β (P42338 whole entry): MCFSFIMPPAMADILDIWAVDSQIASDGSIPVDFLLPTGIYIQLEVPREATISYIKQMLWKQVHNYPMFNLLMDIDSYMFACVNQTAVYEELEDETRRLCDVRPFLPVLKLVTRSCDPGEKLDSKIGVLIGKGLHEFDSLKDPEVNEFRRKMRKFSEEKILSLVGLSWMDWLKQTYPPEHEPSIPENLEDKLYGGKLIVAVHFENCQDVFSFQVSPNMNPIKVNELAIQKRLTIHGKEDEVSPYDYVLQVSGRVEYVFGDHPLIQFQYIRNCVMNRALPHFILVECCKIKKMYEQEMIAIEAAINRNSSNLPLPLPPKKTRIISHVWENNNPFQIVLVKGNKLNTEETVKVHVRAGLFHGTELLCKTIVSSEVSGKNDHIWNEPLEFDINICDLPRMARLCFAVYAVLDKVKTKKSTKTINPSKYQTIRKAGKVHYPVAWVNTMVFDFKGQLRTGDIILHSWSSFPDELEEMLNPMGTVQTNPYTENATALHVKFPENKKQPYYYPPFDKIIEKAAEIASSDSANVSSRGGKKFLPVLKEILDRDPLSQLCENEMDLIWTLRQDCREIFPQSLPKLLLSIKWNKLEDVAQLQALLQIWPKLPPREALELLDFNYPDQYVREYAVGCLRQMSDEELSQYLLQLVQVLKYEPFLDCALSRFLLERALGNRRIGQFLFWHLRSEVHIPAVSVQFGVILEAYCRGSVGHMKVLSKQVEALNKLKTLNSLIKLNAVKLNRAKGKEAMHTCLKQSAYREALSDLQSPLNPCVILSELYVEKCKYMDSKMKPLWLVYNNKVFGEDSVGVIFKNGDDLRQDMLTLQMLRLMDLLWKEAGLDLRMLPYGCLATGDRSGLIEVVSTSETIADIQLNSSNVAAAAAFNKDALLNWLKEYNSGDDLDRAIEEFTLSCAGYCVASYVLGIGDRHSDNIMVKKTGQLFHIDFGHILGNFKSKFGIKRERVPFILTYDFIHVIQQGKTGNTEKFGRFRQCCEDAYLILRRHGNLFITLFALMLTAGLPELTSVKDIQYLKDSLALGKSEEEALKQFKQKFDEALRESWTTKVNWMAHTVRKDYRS
Chain of PI3K β (P27986 whole entry partner): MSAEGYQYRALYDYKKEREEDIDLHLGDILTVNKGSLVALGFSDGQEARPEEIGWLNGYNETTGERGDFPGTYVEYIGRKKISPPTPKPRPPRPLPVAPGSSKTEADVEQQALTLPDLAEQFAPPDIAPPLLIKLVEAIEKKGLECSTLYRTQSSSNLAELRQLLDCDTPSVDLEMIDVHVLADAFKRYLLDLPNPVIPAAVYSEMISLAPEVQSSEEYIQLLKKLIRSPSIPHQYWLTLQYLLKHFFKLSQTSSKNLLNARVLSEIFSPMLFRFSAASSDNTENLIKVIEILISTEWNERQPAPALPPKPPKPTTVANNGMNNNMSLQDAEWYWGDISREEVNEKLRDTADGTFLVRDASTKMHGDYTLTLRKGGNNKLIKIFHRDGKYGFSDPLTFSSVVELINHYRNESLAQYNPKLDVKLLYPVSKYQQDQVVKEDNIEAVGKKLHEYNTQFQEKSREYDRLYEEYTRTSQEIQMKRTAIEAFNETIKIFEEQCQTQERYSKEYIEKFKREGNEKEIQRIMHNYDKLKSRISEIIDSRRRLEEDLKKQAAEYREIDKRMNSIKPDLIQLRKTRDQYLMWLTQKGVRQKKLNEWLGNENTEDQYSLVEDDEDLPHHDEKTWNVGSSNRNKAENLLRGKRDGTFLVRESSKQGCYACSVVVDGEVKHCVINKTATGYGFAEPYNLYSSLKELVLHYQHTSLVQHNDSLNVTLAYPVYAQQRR

| SMILES | pIC50 [1] | pIC50 [2] | pIC50 [3] | pIC50 [5] | pIC50 [6] | also measured |
| --- | --- | --- | --- | --- | --- | --- |
| Nc1nc2cc(-c3ccc4ncc(C(=O)NC5CC5)n4c3)ccc2o1 | > 7.00 | > 7.00 | > 6.00 | > 5.00 | – | pIC50 [4]: > 5.00 |
| Cn1c(=O)n(-c2ccc(C(C)(C)C#N)cc2)c2c3cc(-c4ccc5oc(N)nc5c4)ccc3ncc21 [Compound 7] | > 7.00 | > 7.00 | > 7.00 | > 7.00 | > 7.00 | – |
| Nc1nc2cccc(-c3ccc4nccc(-c5ccncc5)c4c3)c2o1 [Compound 15] | > 6.00 | > 7.00 | > 6.00 | > 7.00 | > 7.00 | – |
| Nc1nc2cc(-c3ccc4ncnc(OC5CCOCC5)c4c3)ccc2o1 [Compound 47] | > 6.00 | > 7.00 | > 6.00 | > 6.00 | > 7.00 | – |
| CS(=O)(=O)N1CCN(Cc2cc3nc(-c4cccc5[nH]ncc45)nc(N4CCOCC4)c3s2)CC1 [Pan-PI3K inhibitor, GDC0941] | – | – | – | – | – | reduction in tumor weight [7]: reduction in tumor weight; presence of MZB cells in mouse spleen [8]: reduced presence of MZB cells; B cell function in vivo (antibody production, % of vehicle control) [9]: blocks B cell function in vivo |
| O=C(O)CCCc1ccc(N(CCCl)CCCl)cc1 [chlorambucil, 4-[bis(2-chloroethyl)amino]benzenebutanoic acid] | – | – | – | – | – | chemical stability [10]: largely hydrolyzed over the course of 24 hours |
| CN(C)CC(=O)N1CCN(c2cnc3ccc(-c4ccc5oc(N)nc5c4)cc3n2)CC1 [drawing 329] | > 6.00 | > 7.00 | > 6.00 | > 6.00 | < 5.00 | – |
| Nc1nc2cc(-c3ccc4ncc(N5CC(C(=O)N6CCOCC6)C5)nc4c3)ccc2o1 [drawing 359] | > 6.00 | > 7.00 | > 6.00 | > 6.00 | > 5.00 | – |
| CN1CCN(C(=O)C2CN(c3cnc4ccc(-c5ccc6oc(N)nc6c5)cc4n3)C2)CC1 [drawing 360] | > 5.00 | > 7.00 | > 6.00 | > 6.00 | > 5.00 | – |
| CC(C)[N+](C)(CCOC(=O)C1c2ccccc2Oc2ccccc21)C(C)C [propantheline] | – | – | – | – | – | plasma stability [11]: intermediate plasma stability |
| CCCOc1cc(N)ccc1C(=O)OCCN(CC)CC [propoxycaine] | – | – | – | – | – | plasma stability [11]: low plasma stability |
| CO[C@H]1C[C@@H]2CC[C@@H](C)[C@@](O)(O2)C(=O)C(=O)N2CCCC[C@H]2C(=O)O[C@H]([C@H](C)C[C@@H]2CC[C@@H](O)[C@H](OC)C2)CC(=O)[C@H](C)/C=C(\C)[C@@H](O)[C@@H](OC)C(=O)[C@H](C)C[C@H](C)/C=C/C=C/C=C/1C [rapamycin] | – | – | – | – | – | Akt phosphorylation [12]: enhances Akt phosphorylation; S6 phosphorylation [12]: inhibits S6 phosphorylation |
